Source: article PMC11874377, “Fungal-derived methyldeoxaphomins target Plasmodium falciparum segregation through the inhibition of PfActin1” (Proceedings of the National Academy of Sciences of the …, 2025)

Columns and labels:
Dd2 = experiment: Stage specific activity assay; format: cell-based, Plasmodium falciparum; details: 5 × EC50
Method: To corroborate the findings identified through the in vitro evolution of resistance, the activity of NPDG-F was assessed in a stage-dependent manner in vitro. Because actin proteins are needed for chromosome separation, we anticipated that parasites treated with NPDG-F would arrest late in the cell cycle. The parasite strain Dd2 was first synchronized and treated in ring (~6 h post invasion, HPI), trophozoite (~18 HPI), early schizont (~30 HPI), or late schizont (~42 HPI). Cultures were then observed in each condition every 12 h until reinvasion occurred via Giemsa stain and flow cytometry. When added in early ring, NPDG-F treated cultures proceeded normally through the intraerythrocytic life cycle until late schizogony (Fig. 4A). […]
EC50s. […] Dose-response curves were then generated for the available conditions where EC50s could be determined. The fractional inhibitor concentration of both compounds was then determined as described (Fivelman et al., 2004) for the available points and graphed on a scale of 0-1 also using Graphpad Prism version 10.
Cytotoxicity was assessed using an MTS (3-(4,5-Dimethylthiazol-2-yl)-5-(3-carboxymethoxyphenyl)-2-(4-sulfophenyl)-2H-tetrazolium) absorbance assay with human HepG2 hepatoma cells. […] Following a 48-h incubation with compounds, MTS solution was added to wells and absorbance was read after 2-4 h on a Synergy Neo2 multimode reader (BioTek Winsooki, VT). […]

Dd2-Pol δ parent line = experiment: Resistant parasite phenotyping and cross resistance, SYBR green I EC50 assay, parent line; format: cell-based, Plasmodium falciparum; details: Plasmodium falciparum; strain Dd2-Pol δ -parent; read-out: EC50 (mean ± SEM)
Method: Cloning by limiting dilution was then performed to isolate individual lines from the bulk population. Due to the multiple mutations identified in the first biological replicate, we isolated four clones from this bulk culture as compared to two clones each from the second and third replicates. These clones were phenotyped via a SYBR green I-based dose–response assay (Table 2 and Fig. 2B). […] The DNA of these clones was then extracted and subjected to whole-genome sequencing.
Resistant parasite phenotyping and cross resistance measurement
The EC50 assay was performed at 1% parasitemia, 1% hematocrit with SYBR green I in 96-well plates. The highest final concentration of the methyldeoxaphomin NPDG-F was set at 100 μM. Briefly, the compound was subjected to a 3-fold serial dilution with ten dilution points. Three technical replicates were set up at each dilution point. The Dd2-Pol δ parent line and the resistant parasites at 2% hematocrit and 1% parasitemia were added to the drug media at 1:1 ratio. The plate was incubated at 37°C for 72 hours in a chamber filled with a hypoxic gas mixture (3% oxygen, 5% carbon dioxide, and 92% nitrogen). After incubation, the cells were lysis with lysis buffer (20 mM Tris-HCL, 0.08% saponin, 5 mM EDTA, and 0.8% Triton X-100) containing SYBR green I (10,000X, Thermo Fisher, cat # S7563) overnight. Fluorescence was measured at 485nm excitation and 530nm emission using a PHERAstar FSX plate reader (BMG Labtech, Germany). Dose response curves were graphed with Prism 9 Version 9.5.1.
3D structural analysis of the mutations and docking studies
The crystal structure of PfActin1 with accession number 6TU4 (resolution 2.60 Ang) (Vahokoski et al., 2022) was obtained from the Protein Data Bank (PDB). This structure of PfActin1 contains ligands Jasplakinolide and ADP with a coordinating magnesium ion.
Only chain A was used for the docking experiment. […] Schrodinger maestro software (Schrödinger, LLC) was used to build NPDG-F with the proper stereochemistry using the x-ray structure determined for analog NPDG-A (vide supra). […]

C=C1C(C)C2C(Cc3ccccc3)NC(=O)C23C(=O)C=CC(O)C(O)C(C)CC(C)CC=CC3C1O (stereo not drawn) [Methyldeoxaphomin NPDG-F]
effect when added after 6 HPI (Dd2; 18, 30 or 42 HPI): persisted only in a minor population of schizonts
effect when added in early ring (Dd2; ~6 HPI, synchronous Dd2): complete life cycle inhibition
EC50 (Dd2-Pol δ parent line): 3.43 µM
